Source: article PMC5983452 (PLoS ONE, 2018)
Where “and” joins values, the source holds several entries; their conditions need not be identical. Identical values can stand only once. Counter-ions that a name gives are not always drawn.

How the values were obtained:
[1] = in vitro; format: in vitro ADME; conditions: plasma
Description: (§1) After stirred for 30 min at 25 °C, NaBH3CN […]
(§2) mixture was concentrated under vacuum. […] The combined organic […]
(§3) The crude product was further
(§4) The fractions containing product were combined and concentrated. […]
(§5) cyclopropylisoxazole-3-carboxamide hydrochloride as a light yellow solid.
(§6) Media was changed every two or three days. On
(§7) 95% at 37°C. […] Cells were
(§8) At 120 min the companion plate was
(§9) Permeability was assessed in duplicate, on two […]
(§10) different occasions. […] Compounds were quantified by LC-MS/MS analysis using a 5 point calibration curve.
(§11) The permeability coefficient
(§12) Solutions of test compounds (1 µM, 0.5% final
(§13) Incubations were performed in
(§14) Haloperidol was incubated in parallel as the control compound for each species.
(§15) (7 points) and protein containing solutions (6 points).
(§16) Liver microsome (LM) stability. […]
(§17) the reaction. The final incubation volume was 50 µL. Negative control incubations were included where phosphate buffer was […]
(§18) min. The negative controls were incubated for 45 min only. […]
(§19) µL methanol at the appropriate time points.
(§20) Subsequently, intrinsic CL (CLint) was […]

[2] = format: in vitro ADME; conditions: plasma
Description: as §1, §2, §3, §4, §5, §6, §7, §8, §9, §10, §11, §12, §13, §14, §15, §16, §17, §18, §19, §20

[3] = in vitro; format: in vitro ADME, CD-1 mice; conditions: male, CD-1, mouse, microsomes, pH 7.4
[4] = in vitro; format: in vitro ADME, SD rats; conditions: male, Sprague-Dawley
[5] = in vitro; format: in vitro ADME, beagle dogs; conditions: male, beagle, dog, microsomes, pH 7.4
[6] = in vitro; format: in vitro ADME, cyno-monkeys; conditions: male, monkey, microsomes, pH 7.4
[7] = in vitro; format: in vitro ADME, humans
[8] = Hepatocyte stability, dog; format: in vitro ADME, beagle dogs; conditions: male, beagle, cryopreserved hepatocytes, read-out: CLint measured with hepatocytes, Dog
[9] = Hepatocyte stability, monkey; format: in vitro ADME, cyno-monkeys; conditions: male, cryopreserved hepatocytes, read-out: CLint measured with hepatocytes, Monkey
[10] = Rat pharmacokinetic study; format: in vivo, male Sprague Dawley rats; conditions: male Sprague Dawley
Description: (§21) 2. […] Food was returned 4 hours after dosing. […] 4. […] Food was returned 4 hours after dosing. […] Supplemental Results:SMYD2 compound characterization […] The […] nM (Figure S8A).

[11] = Monkey (NHP) pharmacokinetic study; format: in vivo, male cynomolgus monkeys; conditions: cynomolgus monkey, male Cynomolgus
Description: as §21

[12] = in vitro; conditions: male, CD-1, mouse, plasma, pH 7.4
Description: (§22) Caco-2 permeability. Caco-2 cells (obtained from the ATCC), between passage numbers 40 to 60, were seeded onto Millipore
(§23) Multiscreen plates at 1x10^5 cells/cm2 in Dulbecco's Modified Eagle Medium. Media was changed every two or three days. On
(§24) Day 20, the permeability study was performed using Hanks Balanced Salt Solution (HBSS) pH 7.4 buffer with 25 mM HEPES and
(§25) Incubations were carried out in an atmosphere of 5% CO2 with a relative humidity of
(§26) The monolayers were prepared by rinsing both basolateral and apical surfaces twice with HBSS at 37°C. Cells were
(§27) then incubated with HBSS in both apical and basolateral compartments for 40 min to stabilize physiological parameters. HBSS […]
(§28) removed and apical and basolateral samples diluted for analysis by LC-MS/MS. Permeability was assessed in duplicate, on two
(§29) different occasions. […] Compounds were quantified by LC-MS/MS analysis using a 5 point calibration curve. The starting concentration (C0) was determined from the dosing solution and
(§30) experimental recovery calculated from C0 and both apical and basolateral compartment concentrations. […]
(§31) (Papp) for each compound was calculated as: (dQ/dt)/(C0xA), where dQ/dt is the rate of permeation of the drug across the cells, C0 […]
(§32) Plasma protein binding. Plasma protein binding was assessed by equilibrium dialysis utilizing the HT-dialysis cell format with a […]

[13] = in vitro; conditions: human, plasma, pH 7.4, Human fu (unbound fraction)
Description: as §22, §23, §24, §25, §26, §27, §28, §29, §30, §31, §32

[14] = system: lung cancer cell lines; conditions: read-out: impact on proliferation of NSCLC and other lung cancer cell lines (none at concentrations as high as)
[15] = Plasma protein binding (equilibrium dialysis), mouse; conditions: male, CD-1, mouse, pH 7.4
Description: as §22, §23, §24, §25, §26, §27, §28, §29, §30, §31, §32

[16] = target: T1, SMYD2 (Homo sapiens, UniProt Q9NRG4); test: Intracellular BTF3 monomethylation (BTF3me1) western blot; format: cell-based; parameters: endogenous in cells; host or cells: 313 cancer cell lines; conditions: read-out: Intracellular Methylation IC50
Description: Cells were lysed in 1X RIPA Buffer containing 10% SDS and Halt™ Protease Inhibitor Cocktail (Thermo Fisher Scientific) and incubated on ice for 30 minutes before sonication (Amplitude 20%/10sec) twice. Lysates were spun at […] at 4°C for 10min and normalized for protein concentration by BCA assay (Thermo Fisher Scientific). […] Blots were imaged using the Odyssey Imaging System (LICOR Biosciences). […] BTF3me1 is a custom generated polyclonal antibody, affinity purified from serum of rabbits injected with adjuvant conjugated peptide corresponding to methylated K1 of BTF3 (K(Me)-[…]).
SMYD2 catalyzes the methylation of lysine residues on several proteins, including BTF3 [40].

[17] = target: T1, SMYD2; test: ITC binding assay EPZ033294/SMYD2; parameters: Full length FLAG-SMYD2 and C-terminally Avi-tagged full length SMYD2 (SMYD2-Avi) were cloned into pFastbac vectors; FLAG (N); His tag with TEV cleavage site (N, cleaved yes); made in house; host or cells: Sf9 insect cells (baculovirus); conditions: 25°C
Description: The assay buffer contained 20 mM Tris-HCl pH 8.0, 100 mM sodium chloride, 1 mM TCEP, 5% glycerol, 50 μM S-adenosylmethionine (SAM), and 0.1% DMSO. […] The assay background signal was generated by injecting compound into buffer in the absence of enzyme and subtracted from the experimental data. The binding isotherm was fitted using the single site model in the Origin software for data analysis (OriginLab, Northampton, MA).

[18] = plasma, IV 1 mg/kg, read-out: CLp
[19] = plasma, IV 1 mg/kg, read-out: Vss

T1 sequence (Q9NRG4 whole entry): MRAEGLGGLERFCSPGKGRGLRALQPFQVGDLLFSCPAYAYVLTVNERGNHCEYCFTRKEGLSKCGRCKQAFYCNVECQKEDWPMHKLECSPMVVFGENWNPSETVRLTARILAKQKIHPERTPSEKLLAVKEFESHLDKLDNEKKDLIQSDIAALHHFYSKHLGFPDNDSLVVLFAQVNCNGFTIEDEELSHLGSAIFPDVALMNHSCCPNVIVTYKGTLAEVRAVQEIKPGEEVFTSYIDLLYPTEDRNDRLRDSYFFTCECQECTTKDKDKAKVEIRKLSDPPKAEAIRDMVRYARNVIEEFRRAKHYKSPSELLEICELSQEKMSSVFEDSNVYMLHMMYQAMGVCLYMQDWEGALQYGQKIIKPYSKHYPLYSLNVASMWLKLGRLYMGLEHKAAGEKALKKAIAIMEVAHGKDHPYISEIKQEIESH

## NC1CCC(S(=O)(=O)N2C3CCC2CC(NC(=O)c2cc(C4CC4)on2)C3)CC1 [EPZ028862, N-((1R,3R,5S)-8-((1r,4R)-4-aminocyclohexylsulfonyl)-8-aza-bicyclo[3.2.1]octan-3-yl)-5-cyclopropylisoxazole-3-carboxamide hydrochloride]
[1]; dog, pH 7.4
  fraction unbound at 16 h, 1 µM: 0.82
[1]; rat, pH 7.4, Rat fu (unbound fraction)
  fraction unbound at 16 h, 1 µM: 0.64
[2]
  Monkey fu (unbound fraction): highly bound
[3]
  microsomal CLint at 1 µM: 3.3 µL/min/mg
[4]; 1 µM, pH 7.4
  CLint measured with liver microsomes, Rat: 3.4 µL/min/mg microsomal protein
[4]; rat, microsomes, pH 7.4, CLint measured with liver microsomes
  microsomal CLint at 1 µM: < 3 µL/min/mg
[5]
  microsomal CLint at 1 µM: < 3 µL/min/mg
[6]
  microsomal CLint at 1 µM: 3.2 µL/min/mg
[7]; both sexes, human, microsomes, pH 7.4, CLint measured with liver microsomes
  microsomal CLint at 1 µM: < 3 µL/min/mg
[7]; both, 1 µM, pH 7.4
  CLint measured with liver microsomes, Human: 3.3 µL/min/mg microsomal protein
[8]
  hepatocyte CLint at 1 µM: < 3 µL/min/1e6 cells
[9]
  hepatocyte CLint at 1 µM: 3.2 µL/min/1e6 cells
[10]; plasma, IV 1 mg/kg, PO 5 mg/kg
  bioavailability: 59 ± 10%
  half-life: 2.1 ± 0.2 h
[10]; [18]
  clearance: 32.7 ± 4.4 mL/min/kg
[10]; [19]
  Vd: 4.4 ± 0.1 L/kg
[10]; plasma, PO 5 mg/kg
  Tmax: 1 h
[10]; urine and plasma, IV 1 mg/kg
  CL renal: 21 ± 6 mL/min/kg
[11]; plasma, IV 1 mg/kg, PO 5 mg/kg
  MRT: 7.4 ± 1.5 h
  bioavailability: 62 ± 13%
  half-life: 5.6 ± 1.3 h
[11]; [18]
  clearance: 21.4 ± 3.4 mL/min/kg
[11]; [19]
  Vd: 9.5 ± 2.5 L/kg
[11]; plasma, PO 5 mg/kg
  Tmax: 2 h
[11]; urine and plasma, IV 1 mg/kg
  CL renal: 1.06 ± 0.84 mL/min/kg
[12]
  fraction unbound at 16 h, 1 µM: 0.51
[13]
  fraction unbound at 16 h, 1 µM: 0.71
[14]
  IC50: > 25000 nM

## O=C(NC1CN(Cc2cnn(Cc3ccc(Cl)cc3)c2)C1)c1cn(C2CC2)nn1 [EPZ033294]
[15]
  fraction unbound at 16 h, 1 µM: 0.26
[16]
  IC50: 2.9 nM
[17]
  stoichiometry of binding (N) by ITC: 0.7 ± 1 and 0.7
[17]; 50 μM SAM, three test occasions, read-out: dissociation constant KD by ITC
  Kd: 8.3 ± 8.2 nM
